Measurements as given in article PMC7156724, “Potent BRD4 inhibitor suppresses cancer cell-macrophage interaction” (Nature Communications, 2020).
Several values for one entry are separate records, joined by “and”; a condition that tells them apart may be missing. Equal entries are not always repeated.

What was measured:
[1] = Equilibrium dialysis assay, SD rat plasma
Description: The concentration was calculated using the peak area ratio of analyte and internal […]
The results were calculated by the following equations:
% Unbound = 100 *FC / TC, % Bound = 100 * (1-FC / TC)
% Recovery = 100 * (FC + TC) / T0
TC = Total compound concentration as determined by the calculated concentration on the retentate side of the membrane
FC = Free compound concentration as determined by the calculated concentration on the dialysate side of the membrane […]
Equation of first order kinetics: […]
8. Equilibrium dialysis assay. Binding with plasma protein and recovery rate of NHWD-870 were performed with human, CD-1 mouse and SD rat plasma as […]
described 2. […] The concentration was […]
calculated using the peak area ratio of analyte and internal standard. The results were calculated by the following equations: % Unbound = 100 *FC / TC, % Bound = 100 * (1-FC / TC); % Recovery = 100 * (FC + TC) / T0; TC = Total compound concentration as determined by the calculated concentration on the retentate side of the membrane; FC = Free compound concentration as determined by the (1 picture or pasted object on this page, not shown here) […]
calculated concentration on the dialysate side of the membrane; T0 = To t a l compound concentration as determined before dialysis. […]
10. hERG channel assay. […]
HEK293 cell line stably

HIF1 reporter activity = experiment: HIF1 luciferase reporter assay; assay type: cell-based, human; parameters: key to HIF1 luciferase reporter activity, relative (Fig.7e): firefly/Renilla luciferase activity ratio, relative to control
Description: Fig. 7 NHWD-870 inhibited CSF1 expression through suppressing BRD4 and HIF1α in tumor cells. a, b Representative western blot analysis of control (Ctrl) and BRD4 knockout (KO) A375 and A2780 cells exposed to 20% or 1% O2 for 24 hours. Selected from three independent experiments. c, d Representative western blot analysis of A375 and A2780 cells treated with DMSO or 25 nM NHWD-870 and exposed to 20% or 1% O2 for 24 h. Selected from three independent experiments. e Relative HIF1 luciferase reporter activity in control (Ctrl), BRD4 knockout (KO), or NHWD-870 treated A375 and A2780 cells exposed to 20% or 1% O2 for 24 h. Data are presented as mean ± SEM from three independent experiments. f RT-qPCR analyses of CSF1 in control (Ctrl), BRD4 knockout (KO), or NHWD-870 treated A375 and A2780 cells exposed to 20% or 1% O2 for 24 hours. Data are presented as mean ± SEM from three independent experiments. g RT-qPCR analyses of HIF1A in A375 or A2780 cells treated with 15 nM NHWD-870 or DMSO control for 24 h. Data are presented as mean ± SEM from three independent experiments. h Genome browser view of BRD4 ChIP-seq peaks on the HIF1A promoter. Shown are BRD4 ChIP and input control of A375 cells (top panel) and BRD4 ChIP of MDA-MB231 cells treated with DMSO or JQ-1 (bottom panel). i BRD4 ChIP-qPCR analyses of the HIF1A promoter in A2780 cells treated with DMSO or NHWD-870 for 72 h. Data are presented as mean ± SEM from three independent experiments. j RT-qPCR analyses of CSF1 in A375 and A2780 cells were transiently transduced with HIF1α, then exposed to 1% O2 for 24 h. Ctrl, Control. Data are presented as mean ± SEM from three independent experiments. k A model showing the effects of NHWD-870 on cancer cell-TAM interaction. NHWD-870 inhibits the proliferation and survival of TAMs partly by inhibiting BRD4 activity, HIF1α expression, and CSF1 secretion by tumor cells, and downregulating CSF1R mediated ERK and PI3K/AKT signaling in TAMs. p values were calculated using two-tailed, unpaired t tests in this figure. *p < 0.05; **p < 0.01; ***p < 0.001. Source data are provided as a Source Data file.
Supplementary Figure 15. […]
Data in (a) and (c-e) are presented as mean ± SEM from 3 independent experiments. p values were calculated using two-tailed, unpaired t tests. **, p<0.01; ***, p<0.001. Source data are provided as a Source […]
All patients had […]
undergone complete cytoreductive surgery.
14. Immunohistochemical staining. Paraffin-embedded implantation samples isolated from peritoneal metastasis of EOC patients (128 cases) were sectioned at a thickness of 4μm. To stain CD68, CSF1 and p-BRD4, the slides were first deparaffinized in xylene and rehydrated with gradient concentrations of alcohol under standard procedures. After rehydration, the slides were immersed in 0.01 mol/L citrate buffer (pH 6.0) and heated (95°C) for 15 min for antigen retrieval.
Then, the samples were incubated with 3% hydrogen peroxide (H2O2) for 10 minutes followed by 10% normal goat serum blocking for 10 minutes. Subsequently, the sections were incubated with rabbit polyclonal anti-human CD68 antibody (dilution 1:100) (sc-20060, Santa Cruz Biotechnology) and anti-human p-BRD4

[2] = biological target: T1, human Ether-à-go-go related gene (hERG) channel (Homo sapiens, UniProt Q12809); experiment: hERG channel assay, manual patch-clamp; assay type: cell-based; settings: HEK293 cells stably transfected with hERG, read-out: IC50, inhibition of hERG channel
T1 construct: host or cells: HEK293, stably transfected, expression induced with doxycycline
Description: calculated concentration on the dialysate side of the membrane; T0 = To t a l compound concentration as determined before dialysis. Good plasma stability should have a value of not less than 80% bound, and the recovery rate should be […]
9. In vivo pharmacokinetics study. Mouse and SD rat models were used to evaluate pharmacokinetic property of NHWD-870. NHWD-870 was administrated by either intravenous injection (IV, 1.75 mg/kg for mouse and 1 mg/kg for rat) or oral gavage (PO, 5 mg/kg) into mice or rats. Concentration of drugs in plasma, lung and tumor tissues were measured for the indicated time.
10. hERG channel assay. The potential inhibitory effect of NHWD-870 on human Ether-à-go-go related gene (hERG) channel was evaluated by manual patch-clamp system using the protocols described below. HEK293 cell line stably

T1 sequence (Q12809 whole entry): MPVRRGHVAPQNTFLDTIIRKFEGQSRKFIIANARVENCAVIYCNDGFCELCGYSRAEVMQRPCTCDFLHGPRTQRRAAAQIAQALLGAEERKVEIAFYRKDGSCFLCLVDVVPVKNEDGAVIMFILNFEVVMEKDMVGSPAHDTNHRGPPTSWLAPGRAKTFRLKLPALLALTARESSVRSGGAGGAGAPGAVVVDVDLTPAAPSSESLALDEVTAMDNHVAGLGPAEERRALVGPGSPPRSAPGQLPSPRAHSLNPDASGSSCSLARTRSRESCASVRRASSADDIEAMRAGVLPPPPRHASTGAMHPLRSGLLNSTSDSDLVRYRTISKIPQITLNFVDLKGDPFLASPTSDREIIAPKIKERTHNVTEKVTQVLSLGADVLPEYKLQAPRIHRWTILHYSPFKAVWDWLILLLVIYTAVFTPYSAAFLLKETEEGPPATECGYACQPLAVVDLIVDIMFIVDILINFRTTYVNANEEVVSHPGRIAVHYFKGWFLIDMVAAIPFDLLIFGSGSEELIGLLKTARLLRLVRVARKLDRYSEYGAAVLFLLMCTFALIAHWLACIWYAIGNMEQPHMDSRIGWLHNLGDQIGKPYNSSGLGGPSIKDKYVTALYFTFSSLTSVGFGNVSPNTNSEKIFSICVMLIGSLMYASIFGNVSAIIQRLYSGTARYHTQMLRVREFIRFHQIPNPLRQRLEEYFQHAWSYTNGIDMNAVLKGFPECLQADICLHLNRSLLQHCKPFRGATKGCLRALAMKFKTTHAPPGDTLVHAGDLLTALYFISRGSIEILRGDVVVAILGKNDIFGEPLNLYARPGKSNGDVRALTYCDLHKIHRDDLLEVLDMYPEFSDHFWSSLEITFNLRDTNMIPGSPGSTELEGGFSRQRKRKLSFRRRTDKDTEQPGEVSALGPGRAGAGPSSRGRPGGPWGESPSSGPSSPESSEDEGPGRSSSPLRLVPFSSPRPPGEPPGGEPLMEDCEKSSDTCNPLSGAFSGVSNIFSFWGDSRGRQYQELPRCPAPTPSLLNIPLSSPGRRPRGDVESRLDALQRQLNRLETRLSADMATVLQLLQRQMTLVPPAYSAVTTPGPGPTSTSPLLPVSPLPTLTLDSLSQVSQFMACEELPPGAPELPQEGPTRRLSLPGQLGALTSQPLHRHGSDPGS

SMILES: Cc1nnn(C)c1-c1cnc2c3c4cnn(C)c4ccc3n([C@H](c3ccccc3)C3CCOCC3)c2c1 [NHWD-870]
- % Bound ([1]; SD rat plasma, equilibrium dialysis): 95.4%
- fraction unbound ([1]; SD, rat, plasma): 0.046
- recovery ([1]; SD, rat, plasma): 92.5%
- HIF1 luciferase reporter activity, relative (Fig.7e) (HIF1 reporter activity; A375, 1% O2): 3.6595 and 5.4118 and 3.2149
- HIF1 luciferase reporter activity, relative (Fig.7e) (HIF1 reporter activity; A375, 20% O2): 0.7214 and 0.5505 and 0.6045
- HIF1 luciferase reporter activity, relative (Fig.7e) (HIF1 reporter activity; A2780, 1% O2): 1.7045 and 2.3901 and 2.1842
- HIF1 luciferase reporter activity, relative (Fig.7e) (HIF1 reporter activity; A2780, 20% O2): 0.5644 and 0.5674 and 0.4042
- HIF1 reporter activity (HIF1 reporter activity; A2780 and A375 cells, 20% or 1% O2, 24 h): significantly decreased HIF1 reporter activity
- IC50 [2]: 5.4 µM
